From ChEMBL document CHEMBL1127354, “Nonpeptidic inhibitors of human leukocyte elastase. 3. Design, synthesis, X-ray crystallographic analysis, and structure-activity relationships for a series of orally active 3-amino-6-phenylpyridin-2-one trifluoromethyl ketones” (J Med Chem, 1994)

Legend:
physchem = details: octanol/water
[1] = Time taken to reach maximum drug concentration in plasma of anesthetized rat at 25 mg/kg oral dose; type: ADME, organism-based; set-up: dose 25 mg/kg, route oral
[2] = Oral bioavailability was measured at concentration of 25 mg/kg oral dose; type: ADME, organism-based; details: eutheria, in vivo
[3] = Maximum concentration of unchanged drug in plasma recorded in the period 0-6 hr of postdose in anesthetized rat at 25 mg/kg oral dose; type: ADME, organism-based; set-up: dose 25 mg/kg, route oral
[4] = Time taken to reach half of the concentration in blood plasma of anesthetized rat at 25 mg/kg oral dose; type: ADME, organism-based; set-up: dose 25 mg/kg, route oral
[5] = Time taken to reach maximum drug concentration in plasma of dog at 5 mg/kg oral dose; type: ADME, organism-based, Canis lupus familiaris; set-up: dose 5 mg/kg, route oral
[6] = Time taken to reach maximum drug concentration in plasma of hamster at 40 mg/kg oral dose; type: ADME, organism-based; set-up: dose 40 mg/kg, route oral; details: cricetinae
[7] = Time taken to reach half of the concentration in blood plasma of hamster at 40 mg/kg oral dose; type: ADME, organism-based; set-up: dose 40 mg/kg, route oral; details: cricetinae
[8] = Oral bioavailability was measured at concentration of 5 mg/kg oral dose in dog; type: ADME, organism-based, Canis lupus familiaris; details: in vivo
[9] = Maximum concentration of unchanged drug in plasma recorded in the period 0-6 hr of postdose to hamster at 40 mg/kg oral dose; type: ADME, organism-based; set-up: dose 40 mg/kg, route oral; details: cricetinae
[10] = Maximum concentration of unchanged drug in plasma recorded in the period 0-6 hr of postdose in dog at 5 mg/kg oral dose; type: ADME, organism-based, Canis lupus familiaris; set-up: dose 5 mg/kg, route oral
[11] = Time taken to reach half of the concentration in blood plasma of dog at 5 mg/kg oral dose; type: ADME, organism-based, Canis lupus familiaris; set-up: dose 5 mg/kg, route oral
[12] = Oral bioavailability was measured at concentration of 40 mg/kg oral dose; type: ADME, organism-based; details: eutheria, in vivo
[13] = Time taken to reach maximum drug concentration in plasma of anesthetized rat at 60 mg/kg oral dose; type: ADME, organism-based; set-up: dose 60 mg/kg, route oral
[14] = Maximum concentration of unchanged drug in plasma recorded in the period 0-6 hr of postdose in anesthetized rat at 60 mg/kg oral dose; type: ADME, organism-based; set-up: dose 60 mg/kg, route oral
[15] = Oral bioavailability was measured at concentration of 60 mg/kg oral dose; type: ADME, organism-based; details: eutheria, in vivo
[16] = Partition coefficient (logP); type: physicochemical; details: octanol/water
[17] = Oral bioavailability was measured at concentration of 40 mg/kg oral dose to hamster; type: ADME, organism-based, Cricetulus griseus; details: chinese hamster, in vivo
[18] = Maximum concentration of unchanged drug in plasma recorded in the period 0-6 hr of postdose in hamster at 40 mg/kg oral dose; type: ADME, organism-based; set-up: dose 40 mg/kg, route oral; details: cricetinae

logP (physchem) | SMILES | other results
1.77 | CC(C)C(NC(=O)Cn1c(-c2ccccc2)ccc(NS(C)(=O)=O)c1=O)C(=O)C(F)(F)F (centres undefined) | 
2.38 | Cc1cc(COC(=O)Nc2ccc(-c3ccccc3)n(CC(=O)NC(C(=O)C(F)(F)F)C(C)C)c2=O)cc(C)n1 (centres undefined) | 
1.91 | CC(C)C(NC(=O)Cn1c(-c2ccccc2)ccc(NC(=O)OCc2ccccn2)c1=O)C(=O)C(F)(F)F (centres undefined) | 
2.41 | CC(C)C(NC(=O)Cn1c(-c2ccccc2)ccc(NC(=O)OCc2ccncc2)c1=O)C(=O)C(F)(F)F (centres undefined) | Tmax [5]: 1 h; Tmax [6]: 0.25 h; half-life [7]: 1.3 h; bioavailability [8]: ~100%; Cmax [9]: 2770 ng/mL; Cmax [10]: 3150 ng/mL; half-life [11]: 0.8 h; bioavailability [12]: 45%
2.16 | CC(C)C(NC(=O)Cn1c(-c2ccccc2)ccc(NC(=O)NCc2ccncc2)c1=O)C(=O)C(F)(F)F (centres undefined) | Tmax [13]: 3 h; Cmax [14]: 75 ng/mL; bioavailability [15]: 2%
0.84 | CC(C)C(NC(=O)Cn1c(-c2ccccc2)ccc(NC(=O)OCc2ccc(C(=O)O)cc2)c1=O)C(=O)C(F)(F)F (centres undefined) | 
2.5 | COc1ccc(S(=O)(=O)Nc2ccc(-c3ccccc3)n(CC(=O)NC(C(=O)C(F)(F)F)C(C)C)c2=O)cc1 (centres undefined) | 
2.53 | CC(C)C(NC(=O)Cn1c(-c2ccccc2)ccc(NS(=O)(=O)c2ccccc2)c1=O)C(=O)C(F)(F)F (centres undefined) | 
1.84 | CC(C)C(NC(=O)Cn1c(-c2ccccc2)ccc(NC=O)c1=O)C(=O)C(F)(F)F (centres undefined) | 

The remaining lines, values behind:

SMILES | logP (physchem) | other results
CC(C)C(NC(=O)Cn1c(-c2ccccc2)ccc(NS(N)(=O)=O)c1=O)C(=O)C(F)(F)F (centres undefined) | 1.17 | 
CC(C)C(NC(=O)Cn1c(-c2ccccc2)ccc(NC(=O)NCc2cc[n+]([O-])cc2)c1=O)C(=O)C(F)(F)F (centres undefined) | 1.13 | 
CC(C)C(NC(=O)Cn1c(-c2ccccc2)ccc(NC(=O)NCc2ccccn2)c1=O)C(=O)C(F)(F)F (centres undefined) | 2.15 | 
CC(C)C(NC(=O)Cn1c(-c2ccccc2)ccc(NC(=O)C(F)(F)F)c1=O)C(=O)C(F)(F)F (centres undefined) | 3.86 | 
CC(C)C(NC(=O)Cn1c(-c2ccccc2)ccc(NC(=O)Cc2ccc(C(=O)O)cc2)c1=O)C(=O)C(F)(F)F (centres undefined) | 0.35 | 
CC(C)C(NC(=O)Cn1c(-c2ccccc2)ccc(NC(=O)OCc2ccccc2)c1=O)C(=O)C(F)(F)F (centres undefined) |  | Tmax [1]: 1.4 h; bioavailability [2]: 59%; Cmax [3]: 1890 ng/mL; half-life [4]: 3 h
CC(C)C(NC(=O)Cn1c(-c2ccccc2)ccc(N)c1=O)C(=O)C(F)(F)F (centres undefined) | 1.74 | 
CC(C)C(NC(=O)Cn1c(-c2ccccc2)ccc(NC(=O)CN2CCOCC2)c1=O)C(=O)C(F)(F)F (centres undefined) | 2 | 
CC(C)C(NC(=O)Cn1c(-c2ccccc2)ccc(NS(=O)(=O)NCc2ccccc2)c1=O)C(=O)C(F)(F)F (centres undefined) | 2.57 | 
CC(=O)Nc1ccc(S(=O)(=O)Nc2ccc(-c3ccccc3)n(CC(=O)NC(C(=O)C(F)(F)F)C(C)C)c2=O)cc1 (centres undefined) |  | logP [16]: Not detected
CC(C)C(NC(=O)Cn1c(-c2ccccc2)ccc(NC(=O)Cc2ccccc2C(=O)O)c1=O)C(=O)C(F)(F)F (centres undefined) | 1.14 | 
CC(C)C(NC(=O)Cn1c(-c2ccccc2)ccc(NC(=O)NCc2cccnc2)c1=O)C(=O)C(F)(F)F (centres undefined) | 2.84 | 
CC(C)C(NC(=O)Cn1c(-c2ccccc2)ccc(NC(=O)NCc2ccc[n+]([O-])c2)c1=O)C(=O)C(F)(F)F (centres undefined) | 1.48 | 
CCNc1ccc(-c2ccccc2)n(CC(=O)NC(C(=O)C(F)(F)F)C(C)C)c1=O (centres undefined) | 2.37 | 
CC(C)C(NC(=O)Cn1c(-c2ccccc2)ccc(NC(=O)OCc2cccc(C(=O)O)c2)c1=O)C(=O)C(F)(F)F (centres undefined) |  | logP [16]: Not detected
CC(=O)Nc1ccc(-c2ccccc2)n(CC(=O)NC(C(=O)C(F)(F)F)C(C)C)c1=O (centres undefined) | 1.78 | bioavailability [17]: 35%; Tmax [6]: 0.25 h; half-life [7]: 1.9 h; Cmax [18]: 2780 ng/mL
CC(C)C(NC(=O)Cn1c(-c2ccccc2)ccc(NS(=O)(=O)Cc2ccccc2)c1=O)C(=O)C(F)(F)F (centres undefined) |  | logP [16]: Not detected
